# Test results reported in PubChem BioAssay (NCI).
#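 Protocol summary: plate cells (96-well), add compound at 5 concentrations, incubate 48 h, interpolate endpoints linearly. The concentration for full growth arrest is given as TGI.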
# Columns and labels:
# Assay in all cases: inhibition of tumour cell growth, NCI panel, 48 h
# UACC-62 melanoma = test system: UACC-62 melanoma
# KM12 colon = test system: KM12 colon
# A549 NSCLC = test system: A549 NSCLC
# UACC-257 melanoma = test system: UACC-257 melanoma
# CCRF-CEM leukemia = test system: CCRF-CEM leukemia
# HT29 colon = test system: HT29 colon
# MOLT-4 leukemia = test system: MOLT-4 leukemia
# HCT-15 colon = test system: HCT-15 colon
# HCC-2998 colon = test system: HCC-2998 colon
# SN12C renal = test system: SN12C renal
# SF-268 CNS = test system: SF-268 CNS
# KM20L2 colon = test system: KM20L2 colon
# SNB-78 CNS = test system: SNB-78 CNS
# K-562 leukemia = test system: K-562 leukemia
# NCI-H23 lung = test system: NCI-H23 lung
# HOP-18 NSCLC = test system: HOP-18 NSCLC
# IGROV1 ovarian = test system: IGROV1 ovarian
# XF 498 CNS = test system: XF 498 CNS
# LOX IMVI melanoma = test system: LOX IMVI melanoma
# HL-60(TB) leukemia = test system: HL-60(TB) leukemia
# SK-OV-3 ovarian = test system: SK-OV-3 ovarian
# TK-10 renal = test system: TK-10 renal
# SF-539 CNS = test system: SF-539 CNS
# UO-31 renal = test system: UO-31 renal
# COLO 205 colon = test system: COLO 205 colon
# NCI-H522 lung = test system: NCI-H522 lung
# A498 renal = test system: A498 renal
# RXF 393 renal = test system: RXF 393 renal
# DMS 273 small cell lung = test system: DMS 273 small cell lung
# SW-620 colon = test system: SW-620 colon
# RPMI-8226 leukemia = test system: RPMI-8226 leukemia
# SK-MEL-5 melanoma = test system: SK-MEL-5 melanoma
# NCI-H460 lung = test system: NCI-H460 lung
# SNB-75 CNS = test system: SNB-75 CNS
# NCI-H226 lung = test system: NCI-H226 lung
# EKVX NSCLC = test system: EKVX NSCLC
# M19-MEL melanoma = test system: M19-MEL melanoma
# U251 CNS = test system: U251 CNS
# SK-MEL-28 melanoma = test system: SK-MEL-28 melanoma
# MALME-3M melanoma = test system: MALME-3M melanoma
# SNB-19 CNS = test system: SNB-19 CNS
# M14 melanoma = test system: M14 melanoma
# CAKI-1 renal = test system: CAKI-1 renal
# DMS 114 small cell lung = test system: DMS 114 small cell lung
# HCT-116 colon = test system: HCT-116 colon
# HOP-62 NSCLC = test system: HOP-62 NSCLC
# 786-0 renal = test system: 786-0 renal
# ACHN renal = test system: ACHN renal
# OVCAR-5 ovarian = test system: OVCAR-5 ovarian
# SR leukemia = test system: SR leukemia
# SF-295 CNS = test system: SF-295 CNS
# OVCAR-4 ovarian = test system: OVCAR-4 ovarian
# LXFL 529 NSCLC = test system: LXFL 529 NSCLC
# OVCAR-3 ovarian = test system: OVCAR-3 ovarian
# SK-MEL-2 melanoma = test system: SK-MEL-2 melanoma
# OVCAR-8 ovarian = test system: OVCAR-8 ovarian
# DLD-1 colon = test system: DLD-1 colon
smiles,measurement,setting,value
Cc1cc(Br)ccc1NC1=CC(=O)C(=O)c2ccccc21,TGI,UACC-62 melanoma,36.1 µM
same,TGI,KM12 colon,> 100 µM
same,TGI,A549 NSCLC,> 100 µM
same,TGI,UACC-257 melanoma,39.4 µM
same,TGI,CCRF-CEM leukemia,> 100 µM
same,TGI,HT29 colon,> 100 µM
same,TGI,MOLT-4 leukemia,> 100 µM
same,TGI,HCT-15 colon,> 100 µM
same,TGI,HCC-2998 colon,> 100 µM
same,TGI,SN12C renal,> 100 µM
same,TGI,SF-268 CNS,> 100 µM
same,TGI,KM20L2 colon,> 100 µM
same,TGI,SNB-78 CNS,> 100 µM
same,TGI,K-562 leukemia,> 100 µM
same,TGI,NCI-H23 lung,32.4 µM
same,TGI,HOP-18 NSCLC,57.1 µM
same,TGI,IGROV1 ovarian,> 100 µM
same,TGI,XF 498 CNS,89.1 µM
same,TGI,LOX IMVI melanoma,48.5 µM
same,TGI,HL-60(TB) leukemia,38.5 µM
same,TGI,SK-OV-3 ovarian,> 100 µM
same,TGI,TK-10 renal,> 100 µM
same,TGI,SF-539 CNS,> 100 µM
same,TGI,UO-31 renal,> 100 µM
same,TGI,COLO 205 colon,> 100 µM
same,TGI,NCI-H522 lung,> 100 µM
same,TGI,A498 renal,> 100 µM
same,TGI,RXF 393 renal,69.6 µM
same,TGI,DMS 273 small cell lung,> 100 µM
same,TGI,SW-620 colon,89.1 µM
same,TGI,RPMI-8226 leukemia,> 100 µM
same,TGI,SK-MEL-5 melanoma,36.8 µM
same,TGI,NCI-H460 lung,78.2 µM
same,TGI,SNB-75 CNS,> 100 µM
same,TGI,NCI-H226 lung,> 100 µM
same,TGI,EKVX NSCLC,> 100 µM
same,TGI,M19-MEL melanoma,29.5 µM
same,TGI,U251 CNS,> 100 µM
same,TGI,SK-MEL-28 melanoma,> 100 µM
same,TGI,MALME-3M melanoma,53 µM
same,TGI,SNB-19 CNS,> 100 µM
same,TGI,M14 melanoma,> 100 µM
same,TGI,CAKI-1 renal,53.1 µM
same,TGI,DMS 114 small cell lung,45 µM
same,TGI,HCT-116 colon,> 100 µM
same,TGI,HOP-62 NSCLC,> 100 µM
same,TGI,786-0 renal,> 100 µM
same,TGI,ACHN renal,> 100 µM
same,TGI,OVCAR-5 ovarian,> 100 µM
same,TGI,SR leukemia,> 100 µM
same,TGI,SF-295 CNS,> 100 µM
same,TGI,OVCAR-4 ovarian,31.1 µM
same,TGI,LXFL 529 NSCLC,> 100 µM
same,TGI,OVCAR-3 ovarian,> 100 µM
same,TGI,SK-MEL-2 melanoma,> 100 µM
same,TGI,OVCAR-8 ovarian,> 100 µM
same,TGI,DLD-1 colon,> 100 µM
